In patent US7919488B2, “Therapeutic compounds” (Pfizer Inc., priority 2006, dated 2011):

How the values were obtained:
Assay type in all cases: biochemical
[1] = biological target: T1, recombinant CYP3A4-b5 enzyme (Baculosomes®) (Homo sapiens, UniProt P08684); assay: Kiapp against recombinant CYP3A4 enzyme (Baculosomes), BFC substrate; details: recombinant CYP3A4-b5 (Invitrogen), 5 uM BFC, 200 uM NADPH, pre-incubation at least 30 minutes, pH 7.0, room temperature
T1 construct: purchased Invitrogen (Carlsbad, Calif.)
T1 sequence (P08684 whole entry): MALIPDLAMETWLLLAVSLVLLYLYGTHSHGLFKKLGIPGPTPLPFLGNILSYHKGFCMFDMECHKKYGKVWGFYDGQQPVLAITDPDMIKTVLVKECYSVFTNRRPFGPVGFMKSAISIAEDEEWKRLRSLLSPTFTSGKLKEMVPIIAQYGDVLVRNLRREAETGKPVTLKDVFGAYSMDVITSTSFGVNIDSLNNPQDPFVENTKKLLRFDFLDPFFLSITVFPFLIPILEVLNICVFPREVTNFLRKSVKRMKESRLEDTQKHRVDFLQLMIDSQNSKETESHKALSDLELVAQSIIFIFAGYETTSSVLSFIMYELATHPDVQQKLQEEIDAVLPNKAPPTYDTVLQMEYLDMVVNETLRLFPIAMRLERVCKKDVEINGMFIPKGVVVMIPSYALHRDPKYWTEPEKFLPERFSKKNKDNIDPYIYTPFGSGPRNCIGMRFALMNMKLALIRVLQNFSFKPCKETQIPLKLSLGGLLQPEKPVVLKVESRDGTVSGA
Method: 1. Determination of Compound Kiapp
A determination of the Kiapp of the compounds of the invention against recombinant CYP3A4 enzyme was performed as follows. The assay was performed in a 100 mM sodium phosphate buffer pH 7.0, 5 mM TCEP and containing 2% dimethylformamide (final concentration) upon addition of substrate and inhibitor. A typical reaction for the determination of Kiapp values was carried at room temperature in a solid black Costar u-bottom 96-well polypropylene plate. […] When pre-incubation was completed (˜30 min), the reaction was initiated by adding NADPH (200 uM, final concentration), and 7-benzyloxy-4-(trifluoromethyl)-coumarin (BFC) (5 uM, final concentration). The oxidation of the coumarin substrate was recorded by a 96-well plate reader POLARstar (BMG LABTECH, Offenburg, Germany).
The initial reaction velocities were measured during the first 5 min of the reaction when the release of the fluorescent product is linear with time, in the absence and in the presence of various concentrations of inhibitors.
The fluorescent substrate BFC was purchased from Sigma (St Louis, Mo.). Two commercial sources of recombinant enzymes were used in this study: recombinant CYP3A4-b5 enzyme (Baculosomes®) was purchased from Invitrogen (Carlsbad, Calif.) and the recombinant CYP3A4+b5 enzyme (Supersomes®) was purchased from BD Biosciences (Woburn, Mass.).

[2] = biological target: T2, CYP3A4 (Homo sapiens, UniProt P08684); assay: IC50 against CYP3A4 by inhibition of testosterone metabolism in human liver microsomes; details: 0.1 mg/mL human liver microsomes, 25 μM testosterone, 1 mM NADPH, 6-β-OH-testosterone production, eight minutes; read-out: IC50, μM (HLM, testosterone)
T2 construct: 0.1 mg/mL human liver microsomes; from tissue; host or cells: human liver microsomes
T2 sequence (P08684 whole entry): as above
Method: 2. Determination of IC50 Against CYP3A4 by Measurement of Inhibition of Testosterone Metabolism
This assay was performed using a standard 96 well plate design. […] Quantitation of metabolite peak area ratio against an internal standard is determined by LC-MS/MS analysis. The production of 6-β-OH-testosterone from testosterone metabolism is determined after incubation for eight minutes by comparison to a standard curve generated for the metabolite
(§1) Samples were analyzed in the MRM mode using a Sciex API 3000 mass spectrometer (Applied Biosystems, Foster City, Calif.) with a Paradigm MS4 binary pump (Michrom BioResources Inc., Auburn, Calif.) and a LEAP CTC PAL autosampler (LEAP Technologies, Carrboro, N.C.). A Phenomenex Synergi, 4μ, Polar-RP, 10×2.0 mm column (Phenomenex, Torrance, Calif.) was used for separation with a mobile phase composition of: 0.1% formic acid in water (A) and: 0.1% formic acid in methanol (B). The following gradient was used: […]
(§2) The sample injection volume was 10 μL and flow was split post-column with 0.4 mL/min going to the mass spectrometer. Analysis was performed using the following API 3000 mass spectrometer settings: […]

[3] = biological target: T2, CYP3A4; assay: IC50 against CYP3A4 by inhibition of midazolam metabolism in human liver microsomes; details: 0.1 mg/mL human liver microsomes, 2 μM midazolam, 1 mM NADPH, 1-hydroxymidazolam production, eight minutes; read-out: IC50, μM (HLM, midazolam)
Method: 3. Determination of IC50 Against CYP3A4 by Measurement of Inhibition of Midazolam Metabolism
This assay was performed using a standard 96 well plate design. […] The incubation substrate mix contains 2 μM midazolam, 0.1 mg/mL human liver microsomes, 1 mM NADPH, and potassium phosphate buffer (100 mM, pH 7.4). Quantitation of metabolite peak area ratio against internal standard is determined by LC-MS/MS analysis. The production of 1-hydroxymidazolam from midazolam metabolism is determined after incubation for eight minutes by comparison to a standard curve generated for the metabolite.
as §1, §2

| Ki [1] [µM] | IC50 [2] [µM] | IC50 [3] [µM] | SMILES |
| --- | --- | --- | --- |
| 0.13 | 0.956 | – | COC(=O)Cn1nc(-c2ccncc2)cc1Cc1ccc(F)cc1 [Example 2, methyl [5-(4-fluorobenzyl)-3-pyridin-4-yl-1H-pyrazol-1-yl]acetate] |
| 0.085 | 0.033 | 0.01 | O=C(Cn1nc(-c2ccncc2)cc1Cc1ccc(F)cc1)N1CCC(N2CCCC2=O)CC1 [Example 5, 1(1-{[5-(4-fluorobenzyl)-3-pyridin-4-yl-1H-pyrazol-1-yl]acetyl}piperidin-4-yl)pyrrolidin-2-one] |
| 0.547 | 0.273 | 0.114 | NC1CCN(C(=O)Cn2nc(-c3ccncc3)cc2Cc2ccc(F)cc2)CC1 [Example 8, 1-{[5-(4-fluorobenzyl)-3-pyridin-4-yl-1H-pyrazol-1-yl]acetyl}piperidin-4-amine] |
| 0.202 | 0.056 | – | CC(C)NC1CCN(C(=O)Cn2nc(-c3ccncc3)cc2Cc2ccc(F)cc2)CC1 [Example 9, 1-{[5-(4-fluorobenzyl)-3-pyridin-4-yl-1H-pyrazol-1-yl]acetyl}-N-isopropylpiperidin-4-amine] |
| 0.0297 | 0.033 | 0.013 | CCC(=O)N(C)C1CCN(C(=O)Cn2nc(-c3ccncc3)cc2Cc2ccc(F)cc2)CC1 [Example 10, N-(1-{[5-(4-fluorobenzyl)-3-pyridin-4-yl-1H-pyrazol-1-yl]acetyl}piperidin-4-yl)-N-methylpropanamide] |
| 0.00841 | 0.012 | < 0.003 | CC(C)C(=O)N(C)C1CCN(C(=O)Cn2nc(-c3ccncc3)cc2Cc2ccc(F)cc2)CC1 [Example 11, N-(1-{[5-(4-fluorobenzyl)-3-pyridin-4-yl-1H-pyrazol-1-yl]acetyl}piperidin-4-yl)-N,2-dimethylpropanamide] |
| 0.00701 | 0.009 | < 0.003 | CN(C(=O)C1CCC1)C1CCN(C(=O)Cn2nc(-c3ccncc3)cc2Cc2ccc(F)cc2)CC1 [Example 12, N-(1-{[5-(4-fluorobenzyl)-3-pyridin-4-yl-1H-pyrazol-1-yl]acetyl}piperidin-4-yl)-N-methylcyclobutanecarboxamide] |
| 0.0111 | 0.009 | < 0.00346 | CN(C(=O)C1CC1)C1CCN(C(=O)Cn2nc(-c3ccncc3)cc2Cc2ccc(F)cc2)CC1 [Example 13, N-(1-{[5-(4-fluorobenzyl)-3-pyridin-4-yl-1H-pyrazol-1-yl]acetyl}piperidin-4-yl)-N-methylcyclopropanecarboxamide] |
| 0.0236 | 0.015 | 0.013 | CN(C1CCN(C(=O)Cn2nc(-c3ccncc3)cc2Cc2ccc(F)cc2)CC1)S(C)(=O)=O [Example 14, N-(1-{[5-(4-fluorobenzyl)-3-pyridin-4-yl-1H-pyrazol-1-yl]acetyl}piperidin-4-yl)-N-methylmethanesulfonamide] |
| 0.0222 | 0.013 | 0.009 | COC(=O)N(C)C1CCN(C(=O)Cn2nc(-c3ccncc3)cc2Cc2ccc(F)cc2)CC1 [Example 15, Methyl (1-{[5-(4-fluorobenzyl)-3-pyridin-4-yl-1H-pyrazol-1-yl]acetyl}piperidin-4-yl)methylcarbamate] |
| 0.0706 | 0.018 | – | O=C(NC1CCN(C(=O)Cn2nc(-c3ccncc3)cc2Cc2ccc(F)cc2)CC1)C1CCC1 [Example 18, N-(1-{2-[5-(4-fluorobenzyl)-3-pyridin-4-yl-1H-pyrazol-1-yl]acetyl}piperidin-4-yl)cyclobutanecarboxamide] |
| 0.0365 | 0.251 | 0.228 | Fc1ccc(Cc2cc(-c3ccncc3)nn2C2CN(C(c3ccccc3)c3ccccc3)C2)cc1 [Example 20, 4-[1-[1-(diphenylmethyl)azetidin-3-yl]-5-(4-fluorobenzyl)-1H-pyrazol-3-yl]pyridine] |
| 0.166 | 0.072 | 0.084 | CCC(=O)N1CC(n2nc(-c3ccncc3)cc2Cc2ccc(F)cc2)C1 [Example 22, 1-(3-(5-(4-fluorobenzyl)-3-(pyridin-4-yl)-1H-pyrazol-1-yl)azetidin-1-yl)propan-1-one] |
| 0.159 | 0.218 | 0.375 | CS(=O)(=O)N1CC(n2nc(-c3ccncc3)cc2Cc2ccc(F)cc2)C1 [Example 23, 4-{5-(4-fluorobenzyl)-1-[1-(methylsulfonyl)azetidin-3-yl]-1H-pyrazol-3-yl}pyridine] |
| 0.0772 | 0.047 | 0.027 | O=C(c1ncc[nH]1)N1CC(n2nc(-c3ccncc3)cc2Cc2ccc(F)cc2)C1 [Example 24, 4-{5-(4-fluorobenzyl)-1-[1-(1H-imidazol-2-ylcarbonyl)azetidin-3-yl]-1H-pyrazol-3-yl}pyridine] |
| 0.159 | 0.054 | – | OCCn1nc(-c2ccncc2)cc1Cc1ccc(F)cc1 [Example 29, 2-[5-(4-fluorobenzyl)-3-pyridin-4-yl-1H-pyrazol-1-yl]ethanol] |
| 0.0834 | 0.04 | – | O=C(Cn1nc(-c2ccncc2)cc1Cc1ccc(F)cc1)NCCc1cnccn1 [Example 78, 2-[5-(4-fluorobenzyl)-3-pyridin-4-yl-1H-pyrazol-1-yl]-N-(2-pyrazin-2-ylethyl)acetamide] |
| 0.112 | 0.022 | – | C[C@H](CO)NC(=O)Cn1nc(-c2ccncc2)cc1Cc1ccc(F)cc1 [Example 94, 2-[5-(4-fluorobenzyl)-3-pyridin-4-yl-1H-pyrazol-1-yl]-N-[(1R)-2-hydroxy-1-methylethyl]acetamide] |
| 0.106 | 0.046 | – | CC(C)C(=O)NC1CCN(C(=O)Cn2nc(-c3ccncc3)cc2Cc2ccc(F)cc2)CC1 [Example 104, N-(1-{[5-(4-fluorobenzyl)-3-pyridin-4-yl-1H-pyrazol-1-yl]acetyl}piperidin-4-yl)-2-methylpropanamide] |
| 0.055 | 0.036 | – | COC(=O)NC1CCN(C(=O)Cn2nc(-c3ccncc3)cc2Cc2ccc(F)cc2)CC1 [Example 105, methyl (1-{[5-(4-fluorobenzyl)-3-pyridin-4-yl-1H-pyrazol-1-yl]acetyl}piperidin-4-yl)carbamate] |
| 0.0782 | 0.023 | – | CCNC(=O)NC1CCN(C(=O)Cn2nc(-c3ccncc3)cc2Cc2ccc(F)cc2)CC1 [Example 106, 1-ethyl-3-(1-{[5-(4-fluorobenzyl)-3-pyridin-4-yl-1H-pyrazol-1-yl]acetyl}piperidin-4-yl)urea] |
| 0.165 | 0.029 | – | CNC(=O)NC1CCN(C(=O)Cn2nc(-c3ccncc3)cc2Cc2ccc(F)cc2)CC1 [Example 107, 1-(1-{[5-(4-fluorobenzyl)-3-pyridin-4-yl-1H-pyrazol-1-yl]acetyl}piperidin-4-yl)-3-methylurea] |
| 0.0881 | 0.241 | – | O=C(Cn1nc(-c2c[nH]cn2)cc1Cc1ccc(F)cc1)N1CCN(c2ncccn2)CC1 [Example 108, 2-(4-{[5-(4-fluorobenzyl)-3-(1H-imidazol-4-yl)-1H-pyrazol-1-yl]acetyl}piperazin-1-yl)pyrimidine] |
| 0.0643 | 0.036 | – | CC(=O)N(C)C1CCN(C(=O)Cn2nc(-c3ccncc3)cc2Cc2ccc(F)cc2)CC1 [Example 109, N-(1-{[5-(4-fluorobenzyl)-3-pyridin-4-yl-1H-pyrazol-1-yl]acetyl}piperidin-4-yl)-N-methylacetamide] |
| 0.0158 | 0.016 | – | CCS(=O)(=O)N(C)C1CCN(C(=O)Cn2nc(-c3ccncc3)cc2Cc2ccc(F)cc2)CC1 [Example 110, N-(1-{[5-(4-fluorobenzyl)-3-pyridin-4-yl-1H-pyrazol-1-yl]acetyl}piperidin-4-yl)-N-methylethane-sulfonamide] |
